Values quoted from earlier work, collected in patent US12138268B2, “Treatment of erectile dysfunction and other indications” (Strategic Science & Technologies, LLC, priority 2009, dated 2024).

## CCCOc1ccc(S(=O)(=O)N2CCN(CCO)CC2)cc1-c1nc2c(CCC)cn(CC)c2c(=O)[nH]1 [mirodenafil]
  pKa: 6.0
